Like-named read-outs stand apart in the source and are kept apart here.
Tests used:
[1] = system: 1205 Lu metastatic melanoma cells; assay: MTS assay viability IC50, 1205 Lu; format: cell-based, human; settings: for IC50: Homo sapiens, 1205Lu; for Selectivity ratio, fibroblasts versus 1205Lu: activity against fibroblasts FF2441 compared to melanoma cells
Procedure: The efficacy of leelamine to kill other cancer types is measured and the IC50 for cell lines derived from carcinomas of breast, lung, prostate, connective tissue, pancreas and colon determined. The MTS assay as described in Sharma, A. et al., Clin Cancer Res, 2009, 15:1674-85; and Madhunapantula, S. V. et al., Mol Cancer Ther, 2008, 7:1297-308 is used to establish the IC50 at 24, 48 and 72 hours of leelamine treatment for normal human epidermal melanocytes (FOM103), normal skin fibroblast cells (FF2441), normal skin keratinocytes (HFK) and compared to melanocytic lesion cells from the radial-, vertical- and metastatic melanoma stages. 5×10^3 cells per well in 100 μL of media are plated and grown in a 96-well plate for 48 to 72 hours and treated with either DMSO vehicle control or 0.62 to 40 μmol/L of leelamine for 24, 48 or 72 hours. IC50 values for each compound in μmol/L for respective cell lines are measured from three independent experiments using GraphPad Prism version 4.01 (GraphPad Software, La Jolla, Calif.). Leelamine is found to be not toxic to normal cells and effective to kill melanoma cells as well as non-melanoma cancer cells as shown in Table 1 in FIG. 20. Leelamine is 3- to 4-fold more specific at killing metastatic melanoma than normal cells, supporting cancer therapeutic utility at concentrations<2 μmol/L.
5×10^3 cells per well in 100 μL of media are plated and grown in a 96-well plate for 48 to 72 hours and treated with either DMSO vehicle control or 0.62 to 40 μmol/L of leelamine for 24, 48 or 72 hours. IC50 values for each compound in μmol/L for respective cell lines are measured from three independent experiments using GraphPad Prism version 4.01 (GraphPad Software, La Jolla, Calif.).
The IC50 and effect of liposomal preparations of leelamine on viability of normal human melanocytes, fibroblasts and melanoma cells UACC 903 and 1205 Lu are measured using the MTS assay (Promega, Madison, Wis.). Empty liposomes or liposomes containing abietic acid are used as controls. 5×10^3 cells per well in 100 μL of media are plated and grown in a 96-well plate for 48 or 72 hours for melanoma and normal cell lines, respectively. The cells are then treated with 0.62 to 40 μmol/L of liposome alone, a liposomal preparation of abietic acid, or with Nanolipolee-007 for 24 hours. IC50 values for each liposome in μmol/L for respective cell lines are measured from three independent experiments using GraphPad Prism version 4.01 (GraphPad Software, La Jolla, Calif.). Nanolipolee-007 retains the growth inhibitory activity of leelamine in killing melanoma cells in culture and specifically kills melanoma cells compared to normal cells, FIG. 24.
Dehydroabietylamine, its N-substituted derivatives and the corresponding dihydroabietylamine and its N-substituted derivatives are tested for their capability to inhibit cell growth of cancer cell lines, including melanoma (UACC 903, 1205Lu), breast (MCF-7), fibrosarcoma (HT-1080), colon (Caco-2), and prostate (PC-3) cancer cell lines. Viability and IC50 of normal human fibroblasts and cell lines from melanoma and other malignancies following treatment with all the agents are measured using the MTS assay (Promega, Madison, Wis.). Human fibroblast FF2441 cells, metastatic melanoma cell lines 1205 Lu and UACC 903 as well as cancer cell lines representing sarcoma (HT-1080), prostate (PC-3, LNCaP), breast (MCF-7) and lung (A-549) are maintained in DMEM (Invitrogen, Carlsbad, Calif.) supplemented with 10% FBS (Hyclone, Logan, Utah) in a 5% CO2 atmosphere, humidified 37° C. incubator. 5×10^3 cells per well in 100 μL of media are plated and grown in a 96-well plate for 48 to 72 h and treated with either DMSO vehicle control or 0.62 to 40 μmol/L for 24, 48 or 72 h. IC50 values for each compound in […] for respective cell lines are measured from three independent experiments using GraphPad Prism version 4.01 (GraphPad Software, La Jolla, Calif.). […]

[2] = system: Breast (MCF-7) cancer cell line; assay: MTS assay viability IC50, MCF-7; format: cell-based; settings: Homo sapiens, MCF7; Table 5
Procedure: Dehydroabietylamine, its N-substituted derivatives and the corresponding dihydroabietylamine and its N-substituted derivatives are tested for their capability to inhibit cell growth of cancer cell lines, including melanoma (UACC 903, 1205Lu), breast (MCF-7), fibrosarcoma (HT-1080), colon (Caco-2), and prostate (PC-3) cancer cell lines. Viability and IC50 of normal human fibroblasts and cell lines from melanoma and other malignancies following treatment with all the agents are measured using the MTS assay (Promega, Madison, Wis.). Human fibroblast FF2441 cells, metastatic melanoma cell lines 1205 Lu and UACC 903 as well as cancer cell lines representing sarcoma (HT-1080), prostate (PC-3, LNCaP), breast (MCF-7) and lung (A-549) are maintained in DMEM (Invitrogen, Carlsbad, Calif.) supplemented with 10% FBS (Hyclone, Logan, Utah) in a 5% CO2 atmosphere, humidified 37° C. incubator. 5×10^3 cells per well in 100 μL of media are plated and grown in a 96-well plate for 48 to 72 h and treated with either DMSO vehicle control or 0.62 to 40 μmol/L for 24, 48 or 72 h. IC50 values for each compound in […] for respective cell lines are measured from three independent experiments using GraphPad Prism version 4.01 (GraphPad Software, La Jolla, Calif.). FIG. 52 is a graph showing IC50 values for leelamine and compounds 4a, 4b and 5a in treated fibroblasts (FF2441) compared to melanoma cells. Selectivity ratio here is defined as ratio of activity against fibroblasts compared to activity against melanoma cells. Leelamine is relatively selective with a ratio of >6 and >4 for UACC903 and 1205Lu melanoma cells. The selectivity ratio of compound 4a is ˜4 and ˜3 for UACC903 and 1205Lu and for compound 4b is ˜4 for both cell lines. The selectivity ratio of compound 5a is ˜4 for UACC903 and >2 for 1205Lu cells.

[3] = Table 4, read-out: IC50 Metastatic Melanoma Cell line 1205Lu
[4] = Table 6, read-out: IC50 Metastatic melanoma 1205 Lu

IC50 [1, 3] [µM]	IC50 [1, 4] [µM]	IC50 [2] [µM]	IC50 ([1]; Example 8, read-out: IC50 1205Lu) [µM]	SMILES	Selectivity ratio, fibroblasts versus 1205Lu [1]
> 100	> 100	> 100		CC(C)C1=CC2=CCC3[C@](C)(CCC[C@@]3(C)C(=O)O)C2CC1 (stereo partly drawn) [Abietic acid, (1R,4aR)-1,4a-dimethyl-7-(propan-2-yl)-1,2,3,4,4a,4b,5,6,10,10a-decahydrophenanthrene-1-carboxylic acid, reference compound]	
2.87 ± 0.07	2.87 ± 0.07	8.69 ± 1.81	2.87	CC(C)C1=CC2=CCC3[C@](C)(CN)CCC[C@]3(C)C2CC1 (stereo partly drawn) [Compound 4a, {[(1R,4aR)-1,4a-dimethyl-7-(propan-2-yl)-1,2,3,4,4a,4b,5,6,10,10a-decahydrophenanthren-1-yl]methyl}amine]	~3
2.08 ± 0.05	2.08 ± 0.05	4.39 ± 0.71		CC(C)c1ccc2c(c1)CCC1[C@](C)(CNC(=O)C(F)(F)F)CCC[C@]21C (stereo partly drawn) [Compound 5a, N-{[(1R,4aS)-1,4a-dimethyl-7-(propan-2-yl)-1,2,3,4,4a,9,10,10a-octahydrophenanthren-1-yl]methyl}-2,2,2-trifluoroacetamide]	> 2
	1.93 ± 0.16	6.42 ± 0.52		CC(C)c1ccc2c(c1)CCC1[C@](C)(CN)CCC[C@]21C (stereo partly drawn) [Leelamine, [(1R,4aS)-1,4a-dimethyl-7-(propan-2-yl)-1,2,3,4,4a,9,10,10a-octahydrophenanthren-1-yl]methanamine]	> 4

— patent US9839618B2, “Compositions and methods relating to proliferative diseases” (The Penn State Research Foundation, priority 2010, dated 2017)
